Reference: article PMC10149936, “Cofilin activation in pancreatic acinar cells plays a pivotal convergent role for mediating CCK-stimulated enzyme secretion and growth” (Frontiers in Physiology, 2023)

Legend:
[1] = system: LIMK (pT508) in pancreatic acini; test: LIMK phosphorylation (pT508 LIMK Western blot) in isolated rat pancreatic acini; type: cell-based
Procedure: Pancreatic acini preparations were obtained by collagenase digestion as previously described ([Bissonnette et al., 1984]; [Sato et al., 1989]; [Ramos-Alvarez and Jensen, 2018]). After collagenase digestion, dispersed acini were preincubated with different inhibitors in standard incubation solution ([Ramos-Alvarez and Jensen, 2018]; [Ramos-Ãlvarez et al., 2020]) for 3 h at 37°C under conditions specific for PKD/PKC, Src, PI3K, MAPKs, SSH1, LIMK, cofilin, other phosphatases and PAK4 inhibitors, as described previously ([Ramos-Alvarez and Jensen, 2018]; [Ramos-Ãlvarez et al., 2020]). Isolated acini and CCK1-R/Panc-1 cells (M&M 2.2.1) were also preincubated with two SSH1 inhibitors, D3 (25 μM, 1 h) ([Li et al., 2015]) or SE (50 μM, 3 h for acini; 24 h for CCK1-R/Panc-1 cells) ([Lee et al., 2017]). After preincubation, 1 mL aliquots of dispersed acini were incubated at 37°C for 3–15 min with CCK-8 (0.3 nM or 100 nM), for 5–15 min with TPA (1 µM) or without stimulants, used as control. Cells were lysed in lysis buffer (50 mM Tris/HCl pH 7.5, 150 mM NaCl, 1% Triton X-100, 1% deoxycholate, 0.1% sodium azide, 1 mM EGTA, 0.4 mM EDTA, 0.2 mM sodium orthovanadate, 1 mM PMSF, and one protease inhibitor tablet per 10 mL). After sonication, lysates were centrifuged at 10,000×g for 15 min at 4°C and protein concentration was measured using the Bio-Rad protein assay reagent. Finally, cells were processed as below for Western blotting.
Both concentrations of CCK-8 were used because CCK-8 is reported to have different responses with physiological and supraphysiological concentrations contributing to physiological and pathophysiological processes such as pancreatitis ([Dufresne et al., 2006]).
Western blotting and immunoprecipitation were performed as described previously ([Ramos-Alvarez and Jensen, 2018]). Whole cell lysates were subjected to SDS-PAGE using 4%–20% Tris–Glycine gels. […] Finally, membranes were then washed again twice in blocking buffer for 4 min, twice in washing buffer for 4 min, incubated for 4 min with chemiluminescence detection reagents. The intensity of the protein bands was measured using GeneTools software from Syngene, which were assessed in the linear detection range.
Isolated pancreatic acini were incubated with either no addition (control), CCK-8 (0.3 and 100 nM) or TPA (1 µM) for the indicated periods of time and then lysed. Western blots were analyzed using anti-pT508 LIMK, anti-pS3 cofilin and anti-pS978 SSH1, which […] the activation states of LIMK, cofilin and SSH1. Bands were visualized using chemiluminescence and quantified by densitometry.

[2] = system: cofilin / total PP2A association; test: co-immunoprecipitation of cofilin with total PP2A in pancreatic acini; type: cell-based, rat; details: for increase in total PP2A co-immunoprecipitation with cofilin: CCK-8 100 nM 3 min, TPA 1 µM 5 min, Figure 8B
Procedure: For co-immunoprecipitation, 600 μg of protein was incubated with 15 μL of the anti-cofilin antibody (Santa Cruz Biotechnology, Inc. Dallas, TX) and 25 μL of protein A/G agarose beads (Thermo-Fisher Scientific. Waltham, MA) overnight at 4°C under agitation. Samples were washed three times with lysis buffer, re-suspended in 12.5 μL of Sample Buffer, Laemlii 2x concentrate and boiled for 5 min before western blotting.
FIGURE 6 Effect of CCK-8 (100 nM) to alter co-immunoprecipitation of cofilin with total PP2A (A) or PP1 (B). Isolated pancreatic acini were incubated in the absence or presence of CCK-8 (100 nM) for 3 min and then lysed. Equal amounts of protein were co-immunoprecipitated with an anti-cofilin (Santa Cruz, SC-376476) and then subjected to Western blots using anti-PP2A and anti-PP1. Bands were visualized using chemiluminescence and quantified by densitometry. Top: Results of a representative blot of four independent experiments are shown. Bottom: Means ± S.E. of at least 4 independent experiments. Results are expressed as % of basal stimulation of the control group. N.S., No significant. Effect of the lysate, lysis buffer, Protein A/G agarose beads (beads) or Anti-cofilin antibody (Anti-cofilin ab) individually on phospho and total cofilin (pS3), phospho and total PP2A, phospho and total PP1 and tubulin. Lysates were analyzed using cofilin (pS3), Total cofilin, PP2A (pY307), Total PP2A, PP1(pT320), Total PP1 and tubulin. Antibody detecting tubulin was used to verify loading of equal amounts of protein.
FIGURE 8 Effect of a PKD inhibitor, kbNB, or a Src inhibitor, PP2, on the ability of CCK-8 (100 nM) and TPA (1 µM) to stimulate the association of cofilin with either phospho-PP2A (A) or total PP2A (B). Isolated pancreatic acini were incubated in the absence or presence of kbNB (0.1 µM) or PP2 (10 µM) for 3 h and then incubated with no addition (control), CCK-8 (100 nM, 3 min) or TPA (1 μM, 5 min), and then lysed. […] Bands were visualized using chemiluminescence and quantified by densitometry. […] Results are expressed as % of basal stimulation of the control group. […]

Molecule	time of return of LIMK phosphorylation to basal levels ([1]; CCK-8 0.3 or 100 nM)	increase in total PP2A co-immunoprecipitation with cofilin [2]	increase in PP2A immunoprecipitation with cofilin ([2]; CCK-8 100 nM, 3 min, Figure 6)	effect on LIMK dephosphorylation ([1]; TPA 1 µM)
COOH-terminal octapeptide of cholecystokinin [CCK-8]	30 min	40%	25%	–
CCCCCCCCCCCCCC(=O)O[C@@H]1[C@@H](C)[C@@]2(O)[C@@H](C=C(CO)C[C@]3(O)C(=O)C(C)=C[C@@H]23)[C@H]2C(C)(C)[C@]12OC(C)=O [TPA, 12-O-tetradecanoylphobol-13-acetate]	–	40%	–	did not cause LIMK dephosphorylation
